We go through 21 compounds from patent US7244727B2, “Fused bicyclic nitrogen-containing heterocycles” (Japan Tobacco Inc., priority 2002, dated 2007).

In one series the target is T1, human DGAT1 (Homo sapiens, UniProt O75907).
T1 construct: made in house; host or cells: insect cells (sf9, sf21 or High Five) infected with baculovirus; total cell membranes
T1 sequence (O75907 1-488): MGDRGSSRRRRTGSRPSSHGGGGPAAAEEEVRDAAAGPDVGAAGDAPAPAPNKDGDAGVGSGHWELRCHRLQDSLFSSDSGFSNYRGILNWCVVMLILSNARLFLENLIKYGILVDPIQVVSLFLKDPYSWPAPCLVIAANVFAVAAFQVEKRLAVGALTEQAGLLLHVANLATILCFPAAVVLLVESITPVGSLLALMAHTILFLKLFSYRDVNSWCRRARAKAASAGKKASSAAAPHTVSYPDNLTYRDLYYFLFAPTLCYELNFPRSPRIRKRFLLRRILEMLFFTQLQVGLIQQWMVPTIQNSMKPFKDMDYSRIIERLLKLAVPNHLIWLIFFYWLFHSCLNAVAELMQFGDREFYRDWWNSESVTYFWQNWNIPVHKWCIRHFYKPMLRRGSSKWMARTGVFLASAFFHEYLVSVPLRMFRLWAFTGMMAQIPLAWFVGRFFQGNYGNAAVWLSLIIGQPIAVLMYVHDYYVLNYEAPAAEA
In words: DGAT Scintillation Proximity Assay (SPA) with membranes of insect cells expressing human flagtag DGAT1. Conditions: read-out: hDGAT1 IC50. The class given is biochemical. The procedure, abridged: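 Membranes (0.2 μg/well) from insect cells expressing human flag-tagged DGAT1 incubated with 10 μM compound and 200 μM dioleoyl glycerol substrate; mercuric chloride as inhibition control. Reaction stopped with WGA SPA beads in mercuric chloride, overnight bead coupling, then scintillation proximity signal read.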
Background: Scintillation proximity formats need no separation of bound from free tracer.

Some results are limits rather than exact numbers.

In the case of `Cc1nc(N)c2c(n1)OC(C)(C)C(c1ccc([C@H]3CC[C@H](CC(=O)O)CC3)c(N)c1)=N2` [Example 6-3], the melting point was 280 °C (dec.). Moreover, the IC50 at human DGAT1 lay in the range of 10 to 100 nM.
For the compound `Cc1nc(N)c2c(n1)OC(C)(C)C(c1ccc([C@H]3CC[C@H](CC(=O)O)CC3)c(N3CCCC3=O)c1)=N2` [Example 6-4], the melting point was 177 °C (dec.). For the same compound, the IC50 on human DGAT1 was greater than 100 nM.
`CCOc1cc(C2=Nc3c(N)nc(C)nc3OC2(C)C)ccc1[C@H]1CC[C@H](CC(=O)O)CC1` [Example 6-8] returned a melting point of 224 to 225 °C. Besides, the IC50 on human DGAT1 is 10 to 100 nM.
The matching figures for `Cc1nc(N)c2c(n1)OC(C)(C)C(c1ccc([C@H]3CC[C@H](CC(=O)O)CC3)c(F)c1)=N2` [Example 6-9]: greater than 269 °C and less than 10 nM.
On to `Cc1nc(N)c2c(n1)OC(C)(C)C(c1ccc([C@H]3CC[C@H](CNC(=O)CO)CC3)c(F)c1)=N2` [Example 6-10], for which the melting point fell in the range of 212 to 214 °C. In addition, the IC50 on human DGAT1 lay in the range of 10 to 100 nM.
For the compound `Cc1nc(N)c2c(n1)OC(C)(C)C(c1ccc([C@H]3CC[C@H](Cc4noc(=O)[nH]4)CC3)c(F)c1)=N2` [Example 6-11], the melting point was greater than 282 °C. Besides, the IC50 at human DGAT1 is 10 to 100 nM.
In turn, `Cc1nc(N)c2c(n1)OC(C)(C)C(c1ccc([C@H]3CC[C@H](Cc4cc(O)[nH]n4)CC3)c(Cl)c1)=N2` [Example 6-12] had a melting point of 171 to 173 °C. Moreover, the IC50 on human DGAT1 is less than 10 nM.
As for `CCNC(=O)NC[C@H]1CC[C@H](c2ccc(C3=Nc4c(N)nc(C)nc4OC3(C)C)cc2Cl)CC1` [Example 6-13], the melting point is greater than 250 °C. At human DGAT1, the IC50 is less than 10 nM.
Consider `Cc1nc(N)c2c(n1)OC(C)(C)C(c1ccc([C@H]3CC[C@H](CNC(=O)OCC(C)C)CC3)c(Cl)c1)=N2` [Example 6-14], for which the melting point is 205 to 209 °C. In addition, on human DGAT1, the IC50 was 10 to 100 nM.
The like results for `Cc1nc(N)c2c(n1)OC(C)(C)C(c1ccc([C@H]3CC[C@H](CNC(=O)N4CCOCC4)CC3)c(Cl)c1)=N2` [Example 6-15] were, in that order, 225 to 228 °C and 10 to 100 nM.
Turning to `Cc1nc(N)c2c(n1)OC(C)(C)C(c1ccc([C@H]3CC[C@H](CNC(=O)N(C)C)CC3)c(Cl)c1)=N2` [Example 6-16], the melting point was greater than 250 °C. Moreover, the IC50 at human DGAT1 was greater than 100 nM.
`Cc1nc(N)c2c(n1)OC(C)(C)C(c1ccc([C@H]3CC[C@H](CN4CCOC4=O)CC3)c(Cl)c1)=N2` [Example 6-17] showed a melting point greater than 250 °C. The IC50 on human DGAT1 is greater than 100 nM.
The matching figures for `Cc1nc(N)c2c(n1)OC(C)(C)C(c1ccc([C@H]3CC[C@H](CNC(=O)C(C)(C)O)CC3)c(Cl)c1)=N2` [Example 6-18]: greater than 250 °C and 10 to 100 nM.
In the case of `Cc1nc(N)c2c(n1)OC(C)(C)C(c1ccc([C@H]3CC[C@H](CN4CCCC(O)C4=O)CC3)c(Cl)c1)=N2` (stereo partly drawn) [Example 6-19], the melting point fell in the range of 225 to 226 °C. Besides, at human DGAT1, the IC50 lay in the range of 10 to 100 nM.
Compound `CC1(C)Oc2nc(C(F)(F)F)nc(N)c2N=C1c1ccc([C@H]2CC[C@H](CC(=O)O)CC2)c(Cl)c1` [Example 6-20] showed a melting point of 247 to 248 °C. For the same compound, the IC50 at human DGAT1 was less than 10 nM.
In turn, `CC1(C)Oc2nc(C(F)(F)F)nc(N)c2N=C1c1ccc([C@H]2CC[C@H](CN3CCOC3=O)CC2)c(Cl)c1` [Example 6-21] gave a melting point greater than 250 °C. Further, the IC50 at human DGAT1 was in the range of 10 to 100 nM.
As for `CC1(C)Oc2nc(C(F)(F)F)nc(N)c2N=C1c1ccc([C@H]2CC[C@H](CNC(N)=O)CC2)c(Cl)c1` [Example 6-22], the melting point was 147 °C (dec.). In addition, the concentration for half-maximal inhibition (IC50) on human DGAT1 lay in the range of 10 to 100 nM.
The matching figures for `Cc1nc(N)c2c(n1)OC(C)(C)C(c1ccc([C@H]3CC[C@H](CNC(N)=O)CC3)c(Cl)c1)=N2` [Example 6-23]: 160 to 166 °C and 10 to 100 nM.
`CC1(C)Oc2nc(C(F)(F)F)nc(N)c2N=C1c1ccc([C@H]2CC[C@H](CNC(=O)CO)CC2)c(Cl)c1` [Example 6-24] registered a melting point of 213 to 216 °C. On human DGAT1, the IC50 lay within 10 to 100 nM.
Turning to `CC1(C)Oc2nc(C(F)(F)F)nc(N)c2N=C1c1ccc([C@H]2CC[C@H](Cc3nc(=O)o[nH]3)CC2)c(Cl)c1` [Example 6-25], the melting point is 236 to 237 °C. For the same compound, the IC50 on human DGAT1 lay within 10 to 100 nM.
The compound `Cc1nc(N)c2c(n1)OC(C)(C)C(c1ccc([C@H]3CC[C@H](CC(=O)O)CC3)c(Cl)c1)=N2` [Example 6] had a melting point greater than 230 °C. The IC50 at human DGAT1 was less than 10 nM.

One may read the melting point as the temperature of the solid-liquid transition. One may read the IC50 as the point on the concentration scale where inhibition reaches its midpoint.
